The source of these data is ChEMBL document CHEMBL1933046, “Synthesis and antibacterial activity of a novel series of acylides active against community acquired respiratory pathogens” (2012).

The structures appear in SMILES notation. Converted amounts (≈) assume the structure as drawn. The source made the active and inactive calls. The calls are words filed in the database; no cut-off is given here.

Assay [1] deals with Streptococcus pneumoniae. Nature of the assay: Antibacterial activity against telethromycin-resistant Streptococcus pneumoniae 5099 expressing erm gene by NCCLS method. The format is functional.
Assay [2] relates to Streptococcus pneumoniae. Nature of the assay: Antibacterial activity against telethromycin-resistant Streptococcus pneumoniae B739 expressing erm gene by NCCLS method. The format is functional.
In assay [3] the test system is Streptococcus pneumoniae. Put plainly: Antibacterial activity against telethromycin-resistant Streptococcus pneumoniae 3390 expressing erm gene by NCCLS method. The format is functional.
Assay [4] has as its system Streptococcus pneumoniae. Nature of the assay: Antibacterial activity against telethromycin-resistant Streptococcus pneumoniae 3488 expressing erm gene by NCCLS method. The format is functional.
The subject of assay [5] is Streptococcus pneumoniae. Nature of the assay: Antibacterial activity against telethromycin-resistant Streptococcus pneumoniae 217 expressing erm gene by NCCLS method. It counts as functional.
Assay [6] has as its system Streptococcus pneumoniae. Nature of the assay: Antibacterial activity against telethromycin-resistant Streptococcus pneumoniae 162 expressing erm gene by NCCLS method. It counts as functional.
In assay [7] the test system is Streptococcus pneumoniae. Put plainly: Antibacterial activity against telethromycin-resistant Streptococcus pneumoniae 3271 expressing erm gene by NCCLS method. It counts as functional.
Assay [8] concerns Streptococcus pneumoniae. Put plainly: Antibacterial activity against telethromycin-resistant Streptococcus pneumoniae 3489 expressing erm gene by NCCLS method. The format is functional.
Assay [9] relates to Streptococcus pneumoniae. Nature of the assay: Antibacterial activity against Streptococcus pneumoniae 994 expressing mef gene by NCCLS method. It counts as functional.
The test system of the next assay is Moraxella catarrhalis. Put plainly: Antibacterial activity against Moraxella catarrhalis 8176 by NCCLS method. The format is functional.
The next assay relates to Streptococcus pyogenes. Nature of the assay: Antibacterial activity against Streptococcus pyogenes 19615 by NCCLS method. It counts as functional.
The test system of assay [10] is Streptococcus pneumoniae. Put plainly: Antibacterial activity against Streptococcus pneumoniae 6303 by NCCLS method. It counts as functional.
Assay [11] has as its system Streptococcus pneumoniae. Nature of the assay: Antibacterial activity against Streptococcus pneumoniae 49619 by NCCLS method. It counts as functional.
The test system of assay [12] is Streptococcus pneumoniae. Nature of the assay: Antibacterial activity against Streptococcus pneumoniae 3579 expressing erm gene infected in mouse systemic infection model. The format is functional, organism-based.
Assay [13] deals with Streptococcus pneumoniae. Put plainly: Antibacterial activity against telethromycin-resistant Streptococcus pneumoniae AB14 expressing erm gene by NCCLS method. It counts as functional.
In assay [14] the test system is Streptococcus pneumoniae. Nature of the assay: Antibacterial activity against Streptococcus pneumoniae 3579 expressing erm gene by NCCLS method. It counts as functional.
Assay [15] relates to Streptococcus pneumoniae. Put plainly: Antibacterial activity against telethromycin-resistant Streptococcus pneumoniae 2840 expressing erm gene by NCCLS method. It counts as functional.
The test system of assay [16] is Streptococcus pneumoniae. Put plainly: Antibacterial activity against telethromycin-resistant Streptococcus pneumoniae 757 expressing erm gene by NCCLS method. The format is functional.
Assay [17] has as its system Streptococcus pneumoniae. Put plainly: Antibacterial activity against telethromycin-resistant Streptococcus pneumoniae 5051 expressing erm gene by NCCLS method. The format is functional.
The subject of assay [18] is Streptococcus pneumoniae. Nature of the assay: Antibacterial activity against Streptococcus pneumoniae by NCCLS method. It counts as functional.
For the next assay, the system named is Haemophilus influenzae. Nature of the assay: Antibacterial activity against Haemophilus influenzae 38 by NCCLS method. The format is functional.

For `C=CCN(C)[C@H]1C[C@@H](C)O[C@@H](O[C@@H]2[C@@H](C)[C@H](OC(=O)Cc3ccccn3)[C@@H](C)C(=O)O[C@H](CC)[C@@]3(C)OC(=O)N(CCCCn4cncc4-c4ccco4)[C@@H]3[C@@H](C)C(=O)[C@H](C)C[C@@]2(C)OC)[C@@H]1O`, the MIC turned out to be 0.125 µg/mL (≈ 0.132 µM) with Streptococcus pneumoniae [1]; 1 µg/mL (≈ 1.05 µM) in the assay on Streptococcus pneumoniae [2]; 0.25 µg/mL (≈ 0.264 µM) against Streptococcus pneumoniae [3]; 0.25 µg/mL (≈ 0.264 µM) in the assay with Streptococcus pneumoniae [4]; 0.5 µg/mL (≈ 0.527 µM) with Streptococcus pneumoniae [5]; 2 µg/mL (≈ 2.11 µM) with Streptococcus pneumoniae [6]. Besides, the MIC against Streptococcus pneumoniae [7] was found to be 1 µg/mL (≈ 1.05 µM); against Streptococcus pneumoniae [8], 1 µg/mL (≈ 1.05 µM); in the assay with Streptococcus pneumoniae [9], 0.06 µg/mL (≈ 0.0633 µM); against Moraxella catarrhalis it was 0.125 µg/mL (≈ 0.132 µM); in the assay with Streptococcus pyogenes, 0.015 µg/mL (≈ 0.0158 µM); against Streptococcus pneumoniae [10], 0.008 µg/mL (≈ 0.00844 µM). For the same molecule, the MIC with Streptococcus pneumoniae [11] amounted to 0.015 µg/mL (≈ 0.0158 µM); in the assay on Streptococcus pneumoniae [13], 0.125 µg/mL (≈ 0.132 µM); in the assay on Streptococcus pneumoniae [14] it was 0.25 µg/mL (≈ 0.264 µM); in the assay with Streptococcus pneumoniae [15], 1 µg/mL (≈ 1.05 µM); against Streptococcus pneumoniae [16], 0.5 µg/mL (≈ 0.527 µM); with Streptococcus pneumoniae [17], 0.25 µg/mL (≈ 0.264 µM). In the assay with Streptococcus pneumoniae [12], the result was Active.
Turning to `CC[C@H]1OC(=O)[C@H](C)[C@@H](O[C@H]2C[C@@](C)(OC)[C@@H](O)[C@H](C)O2)[C@H](C)[C@@H](O[C@@H]2O[C@H](C)C[C@H](N(C)C)[C@H]2O)[C@](C)(OC)C[C@@H](C)C(=O)[C@H](C)[C@@H](O)[C@]1(C)O` [CLARITHROMYCIN], the MIC with Streptococcus pneumoniae [9] was found to be 0.5 µg/mL (≈ 0.668 µM); in the assay with Moraxella catarrhalis it was 4 µg/mL (≈ 5.35 µM); in the assay on Streptococcus pyogenes, 0.125 µg/mL (≈ 0.167 µM); in the assay with Streptococcus pneumoniae [10], 0.25 µg/mL (≈ 0.334 µM); in the assay on Streptococcus pneumoniae [11] it was 0.125 µg/mL (≈ 0.167 µM); against Streptococcus pneumoniae [18], 0.25 µg/mL (≈ 0.334 µM). Moreover, the figures for the MIC against Haemophilus influenzae and in the assay on Streptococcus pneumoniae [14] were more than 16 µg/mL and 4 µg/mL (≈ 5.35 µM), respectively.
Consider `CC[C@H]1OC(=O)[C@H](C)[C@@H](O[C@H]2C[C@@](C)(OC)[C@@H](O)[C@H](C)O2)[C@H](C)[C@@H](O[C@@H]2O[C@H](C)C[C@H](N(C)C)[C@H]2O)[C@](C)(O)C[C@@H](C)C(=O)[C@H](C)[C@@H](O)[C@]1(C)O` [ERYTHROMYCIN], for which the MIC in the assay on Streptococcus pneumoniae [9] came out at 0.5 µg/mL (≈ 0.681 µM); in the assay with Moraxella catarrhalis it was 8 µg/mL (≈ 10.9 µM); against Streptococcus pyogenes, 0.015 µg/mL (≈ 0.0204 µM); in the assay with Streptococcus pneumoniae [10], 0.25 µg/mL (≈ 0.341 µM); against Streptococcus pneumoniae [11], 0.125 µg/mL (≈ 0.17 µM); against Streptococcus pneumoniae [18], 0.25 µg/mL (≈ 0.341 µM). Further, the results for the MIC in the assay on Haemophilus influenzae and against Streptococcus pneumoniae [14] were more than 16 µg/mL and 8 µg/mL (≈ 10.9 µM), respectively.
Turning to `C=CCN(C)[C@H]1C[C@@H](C)O[C@@H](O[C@@H]2[C@@H](C)[C@H](OC(=O)Cc3ccccn3)[C@@H](C)C(=O)O[C@H](CC)[C@@]3(C)OC(=O)N(CCCCn4cnc(-c5ccccc5)c4)[C@@H]3[C@@H](C)C(=O)[C@H](C)C[C@@]2(C)OC)[C@@H]1O`, the MIC is 0.25 µg/mL (≈ 0.261 µM) against Streptococcus pneumoniae [9]; 0.25 µg/mL (≈ 0.261 µM) in the assay on Moraxella catarrhalis; 0.03 µg/mL (≈ 0.0313 µM) against Streptococcus pyogenes; 0.06 µg/mL (≈ 0.0626 µM) against Streptococcus pneumoniae [10]; 0.03 µg/mL (≈ 0.0313 µM) against Streptococcus pneumoniae [11]; less than 0.06 µg/mL in the assay on Haemophilus influenzae. Moreover, in the assay on Streptococcus pneumoniae [14], the MIC was found to be 0.5 µg/mL (≈ 0.522 µM).
For the molecule `C=CCN(C)[C@H]1C[C@@H](C)O[C@@H](O[C@@H]2[C@@H](C)[C@H](OC(=O)Cc3ccccn3)[C@@H](C)C(=O)O[C@H](CC)[C@@]3(C)OC(=O)N(CCCCn4cnc(-c5ccoc5)c4)[C@@H]3[C@@H](C)C(=O)[C@H](C)C[C@@]2(C)OC)[C@@H]1O`, the MIC in the assay with Streptococcus pneumoniae [9] was 0.125 µg/mL (≈ 0.132 µM); in the assay with Moraxella catarrhalis, 0.125 µg/mL (≈ 0.132 µM); with Streptococcus pyogenes it was 0.06 µg/mL (≈ 0.0633 µM); in the assay with Streptococcus pneumoniae [10], 0.06 µg/mL (≈ 0.0633 µM); in the assay with Streptococcus pneumoniae [11], 0.015 µg/mL (≈ 0.0158 µM); with Haemophilus influenzae it was 0.25 µg/mL (≈ 0.264 µM). Moreover, in the assay on Streptococcus pneumoniae [14], the MIC was found to be 0.125 µg/mL (≈ 0.132 µM).
With `CC[C@H]1OC(=O)[C@H](C)[C@@H](OC(=O)Cc2cccnc2)[C@H](C)[C@@H](O[C@@H]2O[C@H](C)C[C@H](N(C)CC)[C@H]2O)[C@](C)(OC)C[C@@H](C)C(=O)[C@H](C)[C@H]2N(CCCCn3cnc4ncccc43)C(=O)O[C@]12C`, the MIC in the assay on Streptococcus pneumoniae [9] was 0.25 µg/mL (≈ 0.271 µM); in the assay on Moraxella catarrhalis it was 0.25 µg/mL (≈ 0.271 µM); against Streptococcus pyogenes, 0.03 µg/mL (≈ 0.0326 µM); in the assay with Streptococcus pneumoniae [10], 0.06 µg/mL (≈ 0.0651 µM); with Streptococcus pneumoniae [11], 0.03 µg/mL (≈ 0.0326 µM); against Haemophilus influenzae, less than 0.03 µg/mL. In the assay on Streptococcus pneumoniae [14], this molecule had an MIC of 2 µg/mL (≈ 2.17 µM).
`C=CCN(C)[C@H]1C[C@@H](C)O[C@@H](O[C@@H]2[C@@H](C)[C@H](OC(=O)Cc3ccccn3)[C@@H](C)C(=O)O[C@H](CC)[C@@]3(C)OC(=O)N(CCCCn4cnc5cnccc54)[C@@H]3[C@@H](C)C(=O)[C@H](C)C[C@@]2(C)OC)[C@@H]1O`: the MIC in the assay with Streptococcus pneumoniae [9] is 0.25 µg/mL (≈ 0.268 µM); with Moraxella catarrhalis, 0.06 µg/mL (≈ 0.0643 µM); in the assay on Streptococcus pyogenes, 0.03 µg/mL (≈ 0.0321 µM); in the assay with Streptococcus pneumoniae [10], 0.06 µg/mL (≈ 0.0643 µM); in the assay with Streptococcus pneumoniae [11] it was 0.03 µg/mL (≈ 0.0321 µM); in the assay with Haemophilus influenzae it was less than 0.06 µg/mL. Also, the MIC in the assay on Streptococcus pneumoniae [14] amounted to 0.25 µg/mL (≈ 0.268 µM).
